Structures are written as SMILES.

For data set [1], the target named is Human immunodeficiency virus type 1 reverse transcriptase (Human immunodeficiency virus 1, UniProt Q72547). As to the kind of experiment: Inhibition of HIV1 reverse transcriptase using r(A)350 template and d(T)16 primer as substrate preincubated for 1 hr before adding substrate by PicoGreen EnzChek Reverse Transcriptase Assay.
Data set [2] concerns Human immunodeficiency virus 1. As to the kind of experiment: Anti-viral activity against wild type HIV1 strain IIIB infected in human MT2 cells assessed as protection of cells from infection. The format is functional, organism-based. To be noted: Human immunodeficiency virus 1, IIIB.
The next data set deals with MT2. As to the kind of experiment: Cytotoxicity against human MT2 cells assessed as inhibition of cell growth. In kind it is toxicity, cell-based.
A short description of data set [3]: Therapeutic index, ratio of CC50 for cytotoxicity against human MT2 cells to EC50 for antiviral activity against wild type HIV1 strain IIIB infected in human MT2 cells assessed as protection of cells from infection. The format is toxicity, cell-based. To be noted: read-out: TI.

For orientation: IC50 means the midpoint of a concentration-inhibition curve. For orientation: EC50 means the concentration at which the effect is half-maximal. For orientation: CC50 means the concentration at which the toxic effect on the cells reaches its halfway point. Take `N#Cc1cc(Cl)cc(Oc2ccc(Cl)cc2OCCc2ccccc2)c1`: the midpoint of inhibition in data set [1], the IC50, lay at 60 nM. Also, the EC50 in data set [2] turned out to be 3100 nM. Moreover, the CC50 in the data set with MT2 is greater than 100 µM.
Taken in the same sequence, the figures for `C=CC(=O)N(C)CCOc1ccccc1Oc1cccc2cc(C#N)ccc12` were less than 10 nM, 1 nM and 4 µM.
On to `C=CC(=O)N(C)CCc1ccc(Cl)c(Oc2cc(Cl)cc(C#N)c2)c1`, for which it took 500 nM to reach half-maximal inhibition in data set [1] (IC50). Moreover, in data set [2], the EC50 is 6200 nM. For the same compound, in the data set on MT2, the CC50 is 50 µM.
In data set [1], `C=CC(=O)N(C)CCOc1ccccc1Oc1cccn2cc(C#N)cc12` yielded an IC50 of less than 10 nM. Moreover, the EC50 in data set [2] amounted to 3 nM. Moreover, in the data set with MT2, the CC50 was determined as 8.8 µM.
The corresponding values for `C=CC(=O)N(C)CCOc1cc(Cl)ccc1Oc1cc(Cl)cc(C#N)c1` are 60 nM, 400 nM and 27 µM.
The corresponding values for `C=CC(=O)N(C)CCOc1cc(Cl)ccc1Oc1cccn2cc(C#N)cc12` are 26 nM, 28 nM and 30 µM.
Taken in the same sequence, the figures for `C=CC(=O)N(C)CCOc1ccc(Cl)c(Oc2cccc3cc(C#N)ccc23)c1` were less than 10 nM, 8500 nM and 25 µM.
In the case of `CN(C)C(=O)CCOc1ccccc1Oc1cccc2cc(C#N)ccc12`, the IC50 in data set [1] came out at 20 nM. Besides, in data set [2], the EC50 is 3 nM. In addition, in the data set on MT2, the CC50 is 33 µM.
Turning to `N#Cc1cc2c(Oc3ccccc3OCCC(=O)N3CCOCC3)cccn2c1`, in data set [1], the IC50 was 60 nM. Besides, the EC50 in data set [2] worked out at 190 nM. Moreover, the CC50 in the data set on MT2 was greater than 100 µM.
As for `N#Cc1cc(Cl)cc(Oc2cc(OCCNC(=O)CCl)ccc2Cl)c1`, in data set [1], the IC50 is 2750 nM. Moreover, in the data set on MT2, the CC50 came to 5.8 µM.
As for `C=CC(=O)Nc1cccc(CCOc2cc(Cl)ccc2Oc2cc(Cl)cc(C#N)c2)c1`, in data set [1], the IC50 is 60 nM. The EC50 in data set [2] came to 3600 nM. In addition, the CC50 with MT2 was found to be 17 µM.
Turning to `C=CC(=O)NCCOc1ccc(Cl)c(Oc2cc(Cl)cc(C#N)c2)c1`, half-maximal inhibition in data set [1] (IC50) was put at 1100 nM. Further, the CC50 in the data set with MT2 is 32 µM.
For `C=CC(=O)N(C)CCOc1ccccc1Oc1cc(Cl)cn2cc(C#N)cc12`, the IC50 in data set [1] is 20 nM. In data set [2], the EC50 amounted to 48 nM. Moreover, the CC50 in the data set with MT2 came out at 33 µM.
Taken in the same sequence, the figures for `C=CC(=O)N(C)CCOc1ccc(Cl)c(Oc2cc(Cl)cc(C#N)c2)c1` were 750 nM, 10000 nM and 17 µM.
In turn, `C=CC(=O)N(C)CCOc1cc(Cl)ccc1Oc1cccc2cc(C#N)ccc12` returned a half-inhibitory concentration (IC50) in data set [1] of 25 nM. The EC50 in data set [2] amounted to 17 nM. Further, the CC50 in the data set with MT2 turned out to be 16 µM.
With `N#Cc1cc(Cl)cc(Oc2ccc(Cl)cc2OCc2ccccc2)c1`, the IC50 in data set [1] turned out to be 1300 nM. For the same compound, the EC50 in data set [2] worked out at 41000 nM. Further, in the data set on MT2, the CC50 was greater than 100 µM.
Taken in the same sequence, the figures for `C=CC(=O)N(C)CCOc1ccc(Cl)c(Oc2cccn3cc(C#N)cc23)c1` were 70 nM, 3900 nM and 31 µM.
In the case of `CN(CCOc1ccc(Cl)c(Oc2cc(Cl)cc(C#N)c2)c1)C(=O)CCl`, in data set [1], it took 1200 nM to reach half-maximal inhibition (IC50). Moreover, the CC50 with MT2 is 1.3 µM.
Compound `N#Cc1cc(Cl)cc(Oc2ccc(Cl)cc2OCCc2cccc(S(=O)(=O)F)c2)c1` gave a half-maximal inhibitory concentration (IC50) in data set [1] of 150 nM. Moreover, in data set [2], the EC50 came out at 45000 nM. Besides, the CC50 with MT2 was 70 µM.
Taken in the same sequence, the figures for `N#Cc1cc2c(Oc3ccccc3OCCC(=O)N3CCCC3)cccn2c1` were 20 nM, 17 nM and greater than 100 µM.
In the case of `C=CS(=O)(=O)CCc1ccc(Cl)c(Oc2cc(Cl)cc(C#N)c2)c1`, the IC50 in data set [1] came to 100000 nM. For the same compound, the CC50 in the data set with MT2 turned out to be 6 µM.
`C=CC(=O)NCCOc1cc(Cl)ccc1Oc1cc(Cl)cc(C#N)c1` came in with an IC50 in data set [1] of 60000 nM. For the same compound, in data set [2], the EC50 turned out to be 12500 nM. Besides, the CC50 in the data set on MT2 stood at 42 µM.
With `N#Cc1cc(Cl)cc(Oc2ccc(Cl)cc2OCCn2cc(Cl)c(=O)[nH]c2=O)c1`, the EC50 in data set [2] turned out to be 17 nM.
`C=CS(=O)(=O)c1cccc(CCOc2cc(Cl)ccc2Oc2cc(Cl)cc(C#N)c2)c1` yielded an IC50 in data set [1] of 9000 nM. For the same compound, the CC50 in the data set on MT2 was 16 µM.
The corresponding values for `C=CC(=O)Nc1cccc(COc2cc(Cl)ccc2Oc2cc(Cl)cc(C#N)c2)c1` are 900 nM and 19 µM.
In the case of `N#Cc1ccc2c(Oc3ccccc3OCCC(=O)N3CCCC3)cccc2c1`, 20 nM corresponded to half-maximal inhibition in data set [1] (IC50). In data set [2], the EC50 came to 14 nM. Further, in the data set on MT2, the CC50 came out at 20 µM.
The compound `N#Cc1cc(Cl)cc(Oc2cc(CCNC(=O)CCl)ccc2Cl)c1` showed an IC50 in data set [1] of 750 nM. For the same compound, the CC50 in the data set on MT2 came to 2.7 µM.
For `CN(C)C(=O)CCOc1ccccc1Oc1cccn2cc(C#N)cc12`, it took 20 nM to reach half-maximal inhibition in data set [1] (IC50). The EC50 in data set [2] was 36 nM. Also, in the data set with MT2, the CC50 was greater than 100 µM.
In data set [1], `C=CC(=O)NCCc1ccc(Cl)c(Oc2cc(Cl)cc(C#N)c2)c1` had an IC50 of 400 nM. Moreover, in data set [2], the EC50 amounted to 3100 nM. In addition, the CC50 with MT2 turned out to be 29 µM.
Taken in the same sequence, the figures for `C=CC(=O)n1c(=O)n(CCOc2cc(Cl)ccc2Oc2cc(Cl)cc(C#N)c2)c2ccccc21` were 150 nM, 470 nM and 8 µM.
Taken in the same sequence, the figures for `N#Cc1cc2c(Oc3ccccc3OCCC(=O)NCC(F)F)cccn2c1` were 1300 nM, 2100 nM and greater than 100 µM.
The corresponding values for `C=CS(=O)(=O)CCOc1ccc(Cl)c(Oc2cc(Cl)cc(C#N)c2)c1` are 8000 nM, 5700 nM and 7.5 µM.
In the case of `CN(CCc1ccc(Cl)c(Oc2cc(Cl)cc(C#N)c2)c1)C(=O)CCl`, the IC50 in data set [1] came out at 4400 nM. Besides, the CC50 in the data set on MT2 was determined as 0.47 µM.
`C=CC(=O)n1c(=O)n(CCOc2ccccc2Oc2cccc3cc(C#N)ccc23)c2ccccc21` registered an IC50 in data set [1] of less than 5 nM. Further, the selectivity ratio in data set [3] was found to be 9000. The half-maximal effective concentration (EC50) in data set [2] amounted to 1 nM. In the data set on MT2, the CC50 turned out to be 4.5 µM.

The values above are taken from ChEMBL document CHEMBL5634149, “Covalent and noncovalent strategies for targeting Lys102 in HIV-1 reverse transcriptase” (Eur J Med Chem, 2023).
